Source: patent US10675267B2, “Methods for detection and eradication of myeloid leukemia stem cells” (priority 2015, dated 2020)
“Also recorded” adds a separate entry of the source.

How the values were obtained:
[1] = tested on: human CD34+ cells from treated mice (DNAJB1, MCL1, BCL2, BCLX, SF3B1 transcripts); experiment: qRT-PCR / RT-PCR of in vivo splicing alterations in CD34-selected human cells from treated AML PRIMAGRAFT mice
Method: For in vivo treatments, a 10 mg/mL stock solution of 17S-FD-895 solubilized in DMSO was used. After randomization, AML-engrafted mice were dosed intravenously with 17S-FD-895 (5-10 mg/kg) or vehicle (for AML-08, vehicle control=15% DMSO in PBS; for AML-37, vehicle control=20% DMSO in PBS) three times over a two-week period, with the first dose given on day 1, the second on day 7, and the third on day 14. For preparation of RNA from human LSC-enriched populations, single cell suspensions from spleen and bone marrow were CD34 double-selected (over two LS selection columns, Miltenyi) and 1-2×10^5 cells were collected in lysis buffer or pooled according to treatment group for serial transplantation assays.
For qRT-PCR analysis of relative total mRNA expression levels or splice isoform-specific expression analyses, cDNA was synthesized using 50 ng-1 […] of template RNA in 20 μL reaction volumes using the First-Strand SUPERSCRIPT™ III Reverse Transcriptase Supermix (Life Technologies) followed by incubation with RNase H according to the manufacturer's protocol and as described previously. All cDNA products were stored at −20° C. Splice isoform-specific primers for PTK2B-202 were designed to bind to unique exon junctions for this transcript, which lacks exon 24. All primers (Table 2) were diluted to 10 μM working dilutions in DNase/RNase-free water. qRT-PCR was performed in duplicate using cDNA (1 μL reverse transcription product per reaction) on an iCycler (Bio-Rad, Hercules, Calif.) using SYBR® GREENER™ Super Mix (Life Technologies) in 25-μL volume reactions containing 0.2 μM of each forward and reverse primer. Cycling conditions were as follows: 50° C. for 2 minutes, then 95° C. for 8 minutes and 30 seconds, followed by 40 cycles of 95° C. for 15 seconds and 60° C. for 60 seconds. Melting curve analysis was performed on each plate according to the manufacturer's instructions. For standard qRT-PCR, human HPRT mRNA transcript levels were used to normalize Ct values obtained for each gene, and relative expression levels were calculated using the 2^−ddCt method. To ensure validity of results, only Ct values <35 were used in gene expression analyses. All primer sets were tested in a no-template control (NTC) reaction containing only water instead of cDNA, and all gave Ct values >35 in NTC reactions.
The 17S-FD-895 dosing regimen was selected as the maximum number of doses possible for the treatment of three experimental groups with the amount of synthesized compound that was available, and is consistent with weekly IV dosing regimens used in clinical trials of spliceosome inhibitory compounds in patients with solid tumors. Animals were euthanized within two hours after delivery of the final dose of 17S-FD-895, and peripheral blood, spleens and bone marrows were collected for analysis of total human cell and stem and progenitor cell engraftment, and for RNA extraction for splice isoform-specific qRT-PCR.
For qRT-PCR analysis of relative total mRNA expression levels or splice isoform-specific expression analyses, cDNA was synthesized using 50 ng-1 […] reaction volumes using the First-Strand SUPERSCRIPT™ III Reverse Transcriptase Supermix (Life Technologies) followed by incubation with RNase H according to the manufacturer's protocol and as described previously (Abrahamsson et al., 2009; Crews et al., 2015). All cDNA products were stored at −20° C. Splice isoform-specific primers for PTK2B-202 were designed to bind to unique exon junctions for this transcript, which lacks exon 24. All primers (Supplemental Experimental Procedures Table) were diluted to 10 ∝M working dilutions in DNase/RNase-free water. qRT-PCR was performed in duplicate using cDNA (1 ∝Λ reverse transcription product per reaction) on an iCycler (Bio-Rad, Hercules, Calif.) using SYBR® GREENER™ Super Mix (Life Technologies) in 25-∝A volume reactions containing 0.2 ∝M of each forward and reverse primer. […]

[2] = tested on: human CD34+ cell fractions from spleens and bone marrow of AML-37 engrafted mice; experiment: RNA-Seq of human CD34+ cells pooled from spleens and bone marrow of treated sAML-engrafted mice; type: in vivo
Method: In vivo molecular response to therapeutic splicing modulation. RNA-seq analysis was performed in human CD34+ cell fractions isolated from spleens and bone marrow of 17S-FD-895-treated sAML-engrafted mice. […] The data are set forth in Table 4 following, which formed the basis for calculation of FIG. 17G.
Xenograft sequencing data of 2×150 bp paired end reads were trimmed using cutadapt 1.8.1, aligned using STAR 2.5.0b against the GRCh37 reference FASTA sequence with the Ensembl GRCh37.75 GTF as a splice junction source. Strandedness was inferred using modulate “infer_experiment.py” from the RSeQC package (Wang et al., 2012). Then, transcripts were quantified using Cufflinks v2.2.1 (Trapnell et al., 2010) against the Ensembl GRCh37.75 GTF reference with bias correction against the GRCh37 reference FASTA. This yielded Cufflinks FPKM values. Isoforms sharing gene names were summed to yield gene FPKMs. FPKM values were transformed to generate log 2(FPKM+1) for all transcripts in the sAML isoform signature (FIGS. 11D, 11E, 12D), comparing vehicle versus 10 mg/kg treatment groups for spleen and bone marrow. Then, a heatmap was generated using all transcripts showing a L2FC>0.5 in both tissues, occurring in the opposite direction of the L2FC transcript expression values in sAML versus normal age-matched controls (i.e. L2FC>1 in sAML, L2FC<−0.5 in 10 mg/kg-treated spleen and bone marrow).
Gene expression data in FPKM was submitted to GSEA to determine significant KEGG pathways, and enrichment plots describing ranked gene expression in those pathways. Additional analyses were performed using custom gene sets including genes associated with the top differentially expressed transcript signatures in aged (“aged up”) versus young (“young up”) HPC and sAML (“sAML up”) versus aged (“aged up”) HPC (FIGS. 11D, 11E, 12D). We acknowledge our use of the gene set enrichment analysis, GSEA software, and Molecular Signature Database (see website: broad.mit.edu). […]

[3] = CD34+ cells of individual treated mice versus vehicle
[4] = pooled CD34+ cells used for serial transplantation

SMILES: CC[C@H](OC)[C@@H](C)[C@H]1O[C@@H]1[C@@H](O)[C@H](C)/C=C/C=C(\C)[C@H]1OC(=O)C[C@H](O)CC[C@@](C)(O)[C@@H](OC(C)=O)/C=C/[C@@H]1C (stereo in doubt) [Formula 17S-FD-895, 17S-FD-895]
- BCL2L1-L/S expression ratio ([1]; CD34+ cells of individual treated mice versus control): significant reduction
- BCL2-L/S expression ratio [1, 3]: significant reduction
- MCL1-L/S expression ratio [1, 3]: significant reduction
- SF3B1 mRNA expression ([1]; after treatment, individual mice and pooled samples): unchanged
- DNAJB1 intron 2 expression / retention ([1]; human CD34+ cells from treated mice versus vehicle): increased DNAJB1 intron 2 expression; also recorded: increased DNAJB1 intron 2 retention
- MCL1-L/S expression ratios, pooled cells [1, 4]: dramatically reduced; also recorded: significantly reduced
- MCL1 exon 1-3 splicing pattern (RT-PCR) [1, 4]: MCL1 exon skipping and intron inclusion
- GSEA of the “aged up” signature ([2]; 10 mg/kg treated mice versus vehicle): enriched
- expression of sAML-specific transcripts STAT6-016 and ITGB2-201 ([2]; higher treatment doses, bone marrow and spleen): reverted to a normal expression pattern
- PTK2B transcripts ([2]; spleen and bone marrow, after treatment): decreased
